# “Also recorded” adds a separate entry of the source.
# Key:
# Format in all cases: cell-based
# [1] = system: caspase 3/7 activity in MOLM13 cells; test: Caspase-Glo 3/7 assay, Molm-13 cells; details: 24 h, co-treated with VHL ligand VHL298
# Method: (§1) All cell lines were purchased from ATCC or DSMZ and grown at 37° C. with 5% C02. Human HeLa cells were cultured in complete growth medium (Dulbecco's modified Eagle's medium (DMEM) supplemented with 10% FBS); MCF7 cells were cultured in complete growth medium (Dulbecco's modified Eagle's medium (DMEM) supplemented with 10% FBS and 0.01 mg/ml human recombinant insulin (Sigma Aldrich); Namalwa and MOLM-13 cells were cultured in complete growth medium (RPMI 1640 medium supplemented with 10% FBS); MV-4-11 were cultured in complete growth medium (Iscove's Modified Dulbecco's medium, supplemented with 10% FBS); HCT116 cells were cultured in complete growth medium (McCoy's 5a Medium supplemented with 10% FBS). […]
# (§2) Caspase-glo® assay (Promega) was conducted following the manufacturer's recommendations. […] After a 24 h incubation, 100 μl of the […] substrate was added per well and luminescence was read on a Spectramax M5 (Molecular Devices).
# (§3) Molm-13 (FIG. 76A) or Namalwa (FIG. 76B) cells (5×104) were treated for 24 hours with the compounds solubilized in DMSO in white 96 well plates (10 nM-10 μM solubilized in DMSO). FIG. 76 is a bar graph depiction of fold increase of apoptosis assessed via caspase 3/7 activity using the Caspase-Glo assay (Promega) described above.
# BRD4 [2] = molecular target: T1, BRD4 (Homo sapiens, UniProt O60885); test: Summary of E3 ligase directed degradation of BRD4, estimated from Western Blot or WES (Tables 1-6); design: endogenous in cells; host or cells: HeLa, MCF7 or HCT116; details: Table 3; aromatic 1,2-diol-containing VHL ligand drawn as drawing 442 (by the text apparently 8305)
# Procedure, shortened: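 HeLa, MCF7 or HCT116 cells treated 24 h with compounds in DMSO, lysed in RIPA buffer; BRD4 levels read by Western blot (ECL detection) or capillary WES with HRP detection. Check mark denotes 30% to 70% or higher protein degradation.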
# BRD4 [3] = molecular target: T1, BRD4; test: CURE-PRO-mediated BRD4 degradation in MCF7 cells with VHL ligands, WES (ProteinSimple); design: endogenous in cells; host or cells: HeLa, MCF7 or HCT116
# Method: as §1, with “FBS). For cellular degradation of BRD4 studies, cells were seeded in a 12-well plate at 70-80% confluency, allowed to attach overnight, and incubated with the indicated compounds for the indicated time.” for “FBS).”
# WES Simple analysis was performed on WES system (ProteinSimple-Biotechne) according to the manufacturer's instructions. Total protein concentrations of cell lysates were determined by the Pierce BCA kit (Thermo Fisher). […]
# MCF7 cells (3×10^6) were treated for 4-24 hours continually (FIG. 72), or treated for 4 h, washed and incubated for a further 4-24 h with the compounds solubilized in DMSO. […] The total protein concentration was quantified by the BCA method (ThermoFisher Sciences). […]
# [4] = system: caspase 3/7 activity in Namalwa cells; test: Caspase-Glo 3/7 assay, Namalwa cells; details: 24 h, co-treated with VHL ligand VHL298
# Method: All cell lines were purchased from ATCC or DSMZ and grown at 37° C. with 5% C02. […]
# as §2
# Namalwa cells (5×104) were treated for 24 hours with the compounds solubilized in DMSO. FIG. 57 is a bar graph depiction of fold increase of apoptosis assessed via caspase 3/7 activity using the Caspase-Glo assay (Promega) described above.
# as §3
# Molm-13 cells = test: CellTiter-Glo cell viability, Molm-13 cells
# Method: as §1
# CellTiter-Glo® 2.0 Cell Viability Assay (Promega) was carried out following the manufacturer's recommendations. […] After a 72 h incubation, 100 ul of the CellTiter-Glo® substrate was added per well and luminescence was read on a Spectramax M5 (Molecular Devices). […]
# Molm-13 cells (1×104) were treated for 24 (FIG. 77A) or 72 (FIG. 77B) hours were treated in white 96 well plates with the compounds (10 nM-10 μM solubilized in DMSO). After indicated times cell viability was assessed using the CellTiter-Glo® Luminescent Cell Viability Assay (Promega) and the signal detected on a SpectraMax M5 (Molecular Devices).
smiles,measurement,setting,value
"CCNC(=O)C[C@@H]1N=C(c2ccc(Cl)cc2)c2cc(B(O)O)ccc2-n2c(C)nnc21 [BRD-E50, ((4S)-6-(4-chlorophenyl)-4-(2-(ethylamino)-2-oxoethyl)-1-methyl-4H-benzo[f][1,2,4]triazolo[4,3-a] [1,4]diazepin-8-yl)boronic acid]",caspase 3/7 activity,[1],does not increase caspase activity
same,"Degradation of BRD4, combination with VHL ligand [drawing 442]",BRD4 [2],✓ (A black check mark indicates efficacy of 30% to 70% or higher protein degradation)
same,BRD4 degradation after pre-incubation with VHL298,"BRD4 [3]; 10 μM each with VHL ligand 8305, VHL298 preincubated at equimolar concentration",attenuates CURE-PRO mediated BRD4 degradation; also recorded: No degradation is noted; also recorded: inhibited CURE-PRO mediated degradation; also recorded: inhibits the degradation of BRD4
same,BRD4 degradation,"BRD4 [3]; 10 μM each, 1:1 with VHL ligand 8305, 4-24 h, with washout where stated","directs degradation of BRD4 as early as 4 h, with sustained degradation 24 h after wash out; also recorded: marked BRD4 degradation after 4 h with sustained degradation for up to 8 h after drugs are washed out"
same,caspase 3/7 activity,[4],does not increase caspase activity
same,loss of cell viability (CellTiter-Glo),"Molm-13 cells; 24 h and 72 h, 10 nM-10 μM, co-dosed 1:1 with VHL ligand 8305",marked loss in cell viability; also recorded: a greater loss of cell viability
same,cell viability (CellTiter-Glo),Molm-13 cells; co-treated with VHL ligand VHL298,decreases levels of cell viability to similar levels of BRD-E50 treatment alone

# From US20240000950A1, “THERAPEUTIC CURE-PRO COMPOUNDS FOR TARGETED DEGRADATION OF BET DOMAIN PROTEINS, AND METHODS OF MAKING AND USING THEM” (CORNELL UNIVERSITY, priority 2020, published 2024)
